Experimental findings from EP0225272A1, “1-Methyl-15-alpha-alkyl-androsta-1,4-diene-3,17-diones, process for their preparation and pharmaceutical compositions containing them” (SCHERING AKTIENGESELLSCHAFT, priority 1985, dated 1987) are described below.

In one test the test system is Östruszyklus der Ratte. Description: Influence of aromatase inhibitors on the estrous cycle of the rat (Allen-Doisy smear technique). It is filed as in vivo, Ratten (SPF-Wistar). An excerpt: In einem weiteren Test wird der Einfluß von Aromatasehemmern auf den Östruszyklus der Ratte bestimmt.
Die Substanzen, die die Östrogenbiosynthese bzw. die Wirkung von Östrogenen hemmen, führen zu einer Störung des Östruszyklus bei Nagern.
Verwendet werden weibliche Ratten (SPF-Wistar) von ca. 180 g Körpergewicht. Pro Gruppe werden 10 Tiere eingesetzt. Der Zyklus wird mittels der Allen-Doisy-Abstrichtechnik täglich untersucht. Es werden zwei aufeinanderfolgende Zyklen verfolgt. Nur Tiere mit einem regelmäßigen 4-Tage-Zyklus kommen in den Versuch. Am Tage des Metöstrus werden die Tiere einmal mit der Testsubstanz (20 mg/Tier) subcutan behandelt. Die Testsubstanz wird dabei in einer 0.9%igen Kochsalzlösung mit Myrj-53^(R) (0.085%) suspendiert (0,5 ml/Dosis). Die Kontrolltiere werden nicht behandelt. Der Versuch wird beendet. wenn alle behandelten Tiere wieder normale Zyklen aufweisen.

The target of another test is T1, Aromataseaktivität (Rattus norvegicus, UniProt P22443).
T1 construct: Infantile weibliche Ratten reagieren auf PMSG (Pregnant Mare's Serum Gonadotropin)-Behandlung mit einheitlich erhöhter Steroidsynthese; from tissue; host or cells: living infantile female rats (in vivo); serum estradiol measured by radioimmunoassay
T1 sequence (P22443 1-508): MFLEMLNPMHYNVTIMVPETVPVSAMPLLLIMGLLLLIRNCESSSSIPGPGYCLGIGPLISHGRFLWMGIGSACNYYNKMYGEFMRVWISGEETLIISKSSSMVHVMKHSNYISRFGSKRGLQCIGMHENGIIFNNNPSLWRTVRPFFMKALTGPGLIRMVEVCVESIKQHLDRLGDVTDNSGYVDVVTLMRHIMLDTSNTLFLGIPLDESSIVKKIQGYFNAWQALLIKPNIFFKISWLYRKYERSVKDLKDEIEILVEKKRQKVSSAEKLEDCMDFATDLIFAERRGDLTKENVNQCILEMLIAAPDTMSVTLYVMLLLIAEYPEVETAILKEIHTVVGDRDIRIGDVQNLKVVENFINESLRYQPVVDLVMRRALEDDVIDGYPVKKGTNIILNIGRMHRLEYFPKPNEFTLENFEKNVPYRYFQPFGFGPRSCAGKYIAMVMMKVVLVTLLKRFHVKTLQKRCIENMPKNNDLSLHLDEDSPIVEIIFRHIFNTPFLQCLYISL
Description: PMSG test: serum estradiol in PMSG-pretreated infantile female rats (radioimmunoassay). It is filed as in vivo, Ratte. Particulars: for Östradiol-Konzentration: peripheral serum, PMSG-pretreated rat, mean ± SD, n=10. On the procedure: Infantile weibliche Ratten reagieren auf PMSG (Pregnant Mare's Serum Gonadotropin)-Behandlung mit einheitlich erhöhter Steroidsynthese. Die Aromataseaktivität kann durch die Beeinflussung der PMSG-stimulierten Ostrogenbildung gemessen werden.
Im sogenannten PMSG-Test werden 21 Tage alte weibliche Ratten alle 2 Tage insgesamt 7 mal mit je 100 I.U. PMSG subkutan vorbehandelt. 1 Stunde vor und 8 Stunden nach der letzten PMSG-Applikation (d12) erhalten die Tiere die Testsubstanz in 0,1 ml Benzylbenzoat/Rizinusöl (1+9) durch subkutane Injektion. Die Kontrolltiere erhalten nur das Vehikel. 24 Stunden nach der letzten PMSG-Applikation werden die Tiere getötet. Im Serum wird Östradiol radioimmunologisch geprüft. Für jede Gruppe von 10 Tieren wird der Mittelwert der Östradiolkonzentration in nMol/1 mit der Standardabweichung errechnet. Die Signifikanzen der Unterschiede zur Kontrollgruppe werden durch die Varianzanalyse geprüft.
Zur Ermittlung der relativen Wirkungsstärke der zu testenden Substanz im Vergleich zu der Standardsubstanz wird die Regressions- und Kovarianzanalyse durchgeführt. Ferner wird die prozentuale Hemmung gegen die PMSG-Kontrolle berechnet.

SMILES strings stand for the structures.

As to `CCCC(=O)OC(C)C1CC(=O)C2(C)CCC3C(CCC4=CC(=O)C=C(C)C43C)C12` (stereo not drawn) [C, 15a-(1S-Butyryloxy-ethyl)-1-methyl-androsta-1.4-dien-3,17-dion], in the test on Östruszyklus der Ratte (single s.c. 20 mg/Tier, average), the “Dauer der Störung des Zyklus (Durchschnitt)” value is reported as approximately 15 Tage. The “Zykluslänge der meisten behandelten Tiere” value in the test on Östruszyklus der Ratte (single s.c. 20 mg/Tier, untreated animals regular 4-day cycle) is listed as 5-Tage-Zyklus. For the same compound, the “Wirkung auf den Zyklus” value in the test on Östruszyklus der Ratte (single s.c. treatment 20 mg/Tier at metestrus, effect starts right after treatment) is “Störung des Zyklus”.

Regarding `CC(=O)O[C@@H](C)[C@H]1CC(=O)[C@@]2(C)CC[C@H]3[C@@H](CCC4=CC(=O)C=C(C)[C@@]43C)[C@H]12` [B], the Östradiol-Konzentration on Aromataseaktivität (dose 0,1 mg/Tier 2 x s.c.) is 2,11 ± 0,39 nMol/l; at Aromataseaktivität (dose 0,3 mg/Tier 2 x s.c.), 0,62 ± 0,13 nMol/l; on Aromataseaktivität (dose 1,0 mg/Tier 2 x s.c.) it was 0,54 ± 0,07 nMol/l; at Aromataseaktivität (dose 3,0 mg/Tier 2 x s.c.), 0,36 ± 0,06 nMol/l.

Regarding `C[C@]12CCC(=O)C(O)=C1CC[C@@H]1[C@@H]2CC[C@]2(C)C(=O)CC[C@@H]12` [A, 4-Hydroxy-4-androsten-3,17-dion], on Aromataseaktivität (lowest dose with inhibition, given 2 x s.c.), the “Dosis, mit der eine Hemmung der Östradiol-Konzentration beobachtet wird” value is on record as 1,0 mg. Moreover, the Östradiol-Konzentration on Aromataseaktivität (dose 0,1 mg/Tier 2 x s.c.) was 3,98 ± 1,12 nMol/l; at Aromataseaktivität (dose 0,3 mg/Tier 2 x s.c.), 3,84 ± 0,84 nMol/l; at Aromataseaktivität (dose 1,0 mg/Tier 2 x s.c.), 1,94 ± 0,62 nMol/l; on Aromataseaktivität (dose 3,0 mg/Tier 2 x s.c.) it was 0,98 ± 0,19 nMol/l.
